{
  "source": "ChEMBL document CHEMBL3244272",
  "about": "“Folate antagonists. 15. 2,3-Diamino-6-(2-naphthylsulfonyl)quinazoline and related 2,4-diamino-6-[(phenyl and naphthyl)sulfinyl and sulfonyl]quinazolines, a potent new class of antimetabolites with phenomenal antimalarial activity” (J Med Chem, 1979)",
  "key": {"Plasmodium falciparum [1]": {"test_system": "Plasmodium falciparum", "assay": "Antimalarial activity against chloroquine-resistant, pyrimethamine-sensitive Plasmodium falciparum Vietnam Oak Knoll in Aotus monkey assessed as dose required to >50% cures compound treated for 7 days", "format": "functional"}, "Plasmodium gallinaceum [2]": {"test_system": "Plasmodium gallinaceum", "assay": "Antimalarial activity against cycloguanil-resistant Plasmodium gallinaceum infected in mouse assessed as dose required to suppress parasitemia by 90% compound treated through diet for 6 days relative to parent strain", "format": "functional"}, "Plasmodium falciparum [3]": {"test_system": "Plasmodium falciparum", "assay": "Antimalarial activity against chloroquine-sensitive, pyrimethamine-resistant Plasmodium falciparum Malayan Camp CH/Q infected in Aotus monkey assessed as dose required to >50% cures compound treated for 7 days", "format": "functional"}, "Plasmodium gallinaceum [4]": {"test_system": "Plasmodium gallinaceum", "assay": "Antimalarial activity against trophozoite-induced Plasmodium gallinaceum infected in chick assessed as mean survival time at 0.63 mg/kg, sc single dose (reference value: 4 days)", "format": "functional", "conditions": "route subcutaneous"}, "Gallus gallus [5]": {"test_system": "Gallus gallus", "assay": "Toxicity in trophozoite-induced Plasmodium gallinaceum infected in chick assessed as death at 5 mg/kg, sc single dose measured within 48 hrs", "format": "organism-based", "parameters": "dose 5 mg/kg, route subcutaneous", "conditions": "chicken, in vivo"}, "Gallus gallus [6]": {"test_system": "Gallus gallus", "assay": "Toxicity in trophozoite-induced Plasmodium gallinaceum infected in chick assessed as death at 10 mg/kg, sc single dose measured within 48 hrs", "format": "organism-based", "parameters": "dose 10 mg/kg, route subcutaneous", "conditions": "chicken, in vivo"}, "Gallus gallus [7]": {"test_system": "Gallus gallus", "assay": "Toxicity in trophozoite-induced Plasmodium gallinaceum infected in chick assessed as death at 40 mg/kg, sc single dose measured within 48 hrs", "format": "organism-based", "parameters": "dose 40 mg/kg, route subcutaneous", "conditions": "chicken, in vivo"}, "Gallus gallus [8]": {"test_system": "Gallus gallus", "assay": "Toxicity in trophozoite-induced Plasmodium gallinaceum infected in chick assessed as death at 0.63 mg/kg, sc single dose measured within 48 hrs", "format": "organism-based", "parameters": "dose 0.63 mg/kg, route subcutaneous", "conditions": "chicken, in vivo"}, "Gallus gallus [9]": {"test_system": "Gallus gallus", "assay": "Toxicity in trophozoite-induced Plasmodium gallinaceum infected in chick assessed as death at 1.25 mg/kg, sc single dose measured within 48 hrs", "format": "organism-based", "parameters": "dose 1.25 mg/kg, route subcutaneous", "conditions": "chicken, in vivo"}, "Plasmodium gallinaceum [10]": {"test_system": "Plasmodium gallinaceum", "assay": "Antimalarial activity against trophozoite-induced Plasmodium gallinaceum infected in chick assessed as cured at 2.5 mg/kg, sc single dose", "format": "functional, organism-based", "parameters": "dose 2.5 mg/kg"}, "Gallus gallus [11]": {"test_system": "Gallus gallus", "assay": "Toxicity in trophozoite-induced Plasmodium gallinaceum infected in chick assessed as death at 160 mg/kg, sc single dose measured within 48 hrs", "format": "organism-based", "parameters": "dose 160 mg/kg, route subcutaneous", "conditions": "chicken, in vivo"}, "Gallus gallus [12]": {"test_system": "Gallus gallus", "assay": "Toxicity in trophozoite-induced Plasmodium gallinaceum infected in chick assessed as death at 80 mg/kg, sc single dose measured within 48 hrs", "format": "organism-based", "parameters": "dose 80 mg/kg, route subcutaneous", "conditions": "chicken, in vivo"}, "Gallus gallus [13]": {"test_system": "Gallus gallus", "assay": "Toxicity in trophozoite-induced Plasmodium gallinaceum infected in chick assessed as death at 20 mg/kg, sc single dose measured within 48 hrs", "format": "organism-based", "parameters": "dose 20 mg/kg, route subcutaneous", "conditions": "chicken, in vivo"}, "Plasmodium gallinaceum [14]": {"test_system": "Plasmodium gallinaceum", "assay": "Antimalarial activity against trophozoite-induced Plasmodium gallinaceum infected in chick assessed as mean survival time at 10 mg/kg, sc single dose (reference value: 4 days)", "format": "functional", "conditions": "route subcutaneous"}, "Plasmodium berghei [15]": {"test_system": "Plasmodium berghei", "assay": "Antimalarial activity against trophozoite-induced Plasmodium berghei infected in mouse assessed as change in mean survival time at 2.5 mg/kg, sc single dose after 72 hrs of infection", "format": "functional", "conditions": "route subcutaneous"}, "Plasmodium berghei [16]": {"test_system": "Plasmodium berghei", "assay": "Antimalarial activity against trophozoite-induced Plasmodium berghei infected in sc dosed mouse assessed as minimum curative dose", "format": "functional"}, "Plasmodium gallinaceum [17]": {"test_system": "Plasmodium gallinaceum", "assay": "Antimalarial activity against trophozoite-induced Plasmodium gallinaceum infected in chick assessed as mean survival time at 2.5 mg/kg, sc single dose (reference value: 4 days)", "format": "functional", "conditions": "route subcutaneous"}, "Gallus gallus [18]": {"test_system": "Gallus gallus", "assay": "Toxicity in trophozoite-induced Plasmodium gallinaceum infected in chick assessed as death at 320 mg/kg, sc single dose measured within 48 hrs", "format": "organism-based", "parameters": "dose 320 mg/kg, route subcutaneous", "conditions": "chicken, in vivo"}, "Plasmodium gallinaceum [19]": {"test_system": "Plasmodium gallinaceum", "assay": "Antimalarial activity against trophozoite-induced Plasmodium gallinaceum infected in chick assessed as cured at 1.25 mg/kg, sc single dose", "format": "functional, organism-based", "parameters": "dose 1.25 mg/kg"}, "Plasmodium gallinaceum [20]": {"test_system": "Plasmodium gallinaceum", "assay": "Antimalarial activity against trophozoite-induced Plasmodium gallinaceum infected in chick assessed as cured at 0.63 mg/kg, sc single dose", "format": "functional, organism-based", "parameters": "dose 0.63 mg/kg"}, "Plasmodium berghei [21]": {"test_system": "Plasmodium berghei", "assay": "Antimalarial activity against trophozoite-induced Plasmodium berghei infected in mouse assessed as change in mean survival time at 1.25 mg/kg, sc single dose after 72 hrs of infection", "format": "functional", "conditions": "route subcutaneous"}, "Gallus gallus [22]": {"test_system": "Gallus gallus", "assay": "Toxicity in trophozoite-induced Plasmodium gallinaceum infected in chick assessed as death at 2.5 mg/kg, sc single dose measured within 48 hrs", "format": "organism-based", "parameters": "dose 2.5 mg/kg, route subcutaneous", "conditions": "chicken, in vivo"}, "Plasmodium gallinaceum [23]": {"test_system": "Plasmodium gallinaceum", "assay": "Antimalarial activity against trophozoite-induced Plasmodium gallinaceum infected in chick assessed as mean survival time at 1.25 mg/kg, sc single dose (reference value: 4 days)", "format": "functional", "conditions": "route subcutaneous"}, "Plasmodium gallinaceum [24]": {"test_system": "Plasmodium gallinaceum", "assay": "Antimalarial activity against trophozoite-induced Plasmodium gallinaceum infected in chick assessed as mean survival time at 5 mg/kg, sc single dose (reference value: 4 days)", "format": "functional", "conditions": "route subcutaneous"}},
  "note": "The source made the active and inactive calls. No cut-off for these calls is given here.",
  "data": [
    {"smiles": "Nc1nc(N)c2cc(Sc3ccc(Cl)cc3)ccc2n1", "values": [
      {"measurement": "Activity", "setting": "Plasmodium falciparum [1]", "value": 0.31, "unit": "mg/kg"},
      {"measurement": "fold change (FC)", "setting": "Plasmodium gallinaceum [2]", "value": 4},
      {"measurement": "Activity", "setting": "Plasmodium falciparum [3]", "value": 5, "unit": "mg/kg"}
    ]},
    {"smiles": "Nc1nc(N)c2cc(S(=O)(=O)c3ccc(Cl)cc3)ccc2n1", "values": [
      {"measurement": "MST", "setting": "Plasmodium gallinaceum [4]", "value": 4, "unit": "days"},
      {"measurement": "Activity", "setting": "Gallus gallus [5]", "value": "Toxic"},
      {"measurement": "Activity", "setting": "Gallus gallus [6]", "value": "Toxic"},
      {"measurement": "Activity", "setting": "Gallus gallus [7]", "value": "Toxic"},
      {"measurement": "Activity", "setting": "Gallus gallus [8]", "value": "Toxic"},
      {"measurement": "Activity", "setting": "Gallus gallus [9]", "value": "Toxic"},
      {"measurement": "Activity", "setting": "Plasmodium gallinaceum [10]", "value": "Active"},
      {"measurement": "Activity", "setting": "Gallus gallus [11]", "value": "Toxic"},
      {"measurement": "Activity", "setting": "Gallus gallus [12]", "value": "Toxic"},
      {"measurement": "Activity", "setting": "Gallus gallus [13]", "value": "Toxic"},
      {"measurement": "MST", "setting": "Plasmodium gallinaceum [14]", "value": 20, "unit": "days"},
      {"measurement": "MST", "setting": "Plasmodium berghei [15]", "value": 12.2, "unit": "days"},
      {"measurement": "MCD", "setting": "Plasmodium berghei [16]", "value": 40, "unit": "mg/kg"},
      {"measurement": "MST", "setting": "Plasmodium gallinaceum [17]", "value": 15, "unit": "days"},
      {"measurement": "Activity", "setting": "Gallus gallus [18]", "value": "Toxic"},
      {"measurement": "Activity", "setting": "Plasmodium gallinaceum [19]", "value": "Active"},
      {"measurement": "Activity", "setting": "Plasmodium gallinaceum [20]", "value": "Active"},
      {"measurement": "MST", "setting": "Plasmodium berghei [21]", "value": 7.7, "unit": "days"},
      {"measurement": "Activity", "setting": "Gallus gallus [22]", "value": "Toxic"},
      {"measurement": "MST", "setting": "Plasmodium gallinaceum [23]", "value": 7.4, "unit": "days"},
      {"measurement": "MST", "setting": "Plasmodium gallinaceum [24]", "value": 16, "unit": "days"}
    ]}
  ]
}
